# Laboratory results reported in US20060135624A1, “Natural compound useful for treating diabetes, its preparation and use” (JINGYU LIANG ET AL, priority 2002, published 2006).
# Columns and labels:
# [1] = system: mouse hyperglycemia induced by alloxan; experiment: Effects of Sequoyitol on mouse hyperglycemia induced by alloxan; type: in vivo, Kunming mice
# Protocol: 1. Experimental Methods^[1,2] • Among 60 mice, 10 mice were randomly selected as normal group, and the residual mice were administrated with 65 mg/kg alloxan by caudal vein injection, modeled according to the method of documents, and divided into 5 groups according to blood-sugar values, wherein 4 groups were perorally administrated with 25, 50 and 100 mg/kg of Sequoyitol and 75 mg/kg of phenformine according to 0.1 ml/10 g of body weight, respectively, and the normal group and modeling group were administrated with the same volum of distilled water, separately. These administrations were conducted for continuous 7 days. The blood-sugar levels were detected by glucose oxidase method. The pancreatic glands of the mice were soaked in 10% formalin, embedded with paraffin, sliced, and dyed with HE dye.
# [2] = system: normal mice; experiment: Test of acute toxicity by intravenous administration; type: in vivo; conditions: 5.04 g/kg intravenous injection
# From the text: 1) Experimental Method • 20 Normal mice (half male and half female) were administrated with 5.04 g/kg Sequoyitol (which reached the maximum concentration and the maximum intravenous administration volume) by intravenous injection. The animals' responses were observed. The mice were executed after 14 days, and their organs were macroscopically observed.
# [3] = system: mouse hyperglycemia induced by glucose; experiment: Effect of Sequoyitol on mouse hyperglycemia induced by glucose; type: in vivo, Kunming mice
# Protocol: 1. Experimental Method^[4] • 72 Mice were randomly divided into 6 groups, […] according to 0.1 ml/10 g of body weight, respectively, and the normal group and modeling group were administrated with the same volum of distilled water. These administrations were conducted for continuous 7 days. The normal group was administrated with the same volum of physiological saline by injection, while other groups were administrated with […] of glucose by intra-abdominal injection. After 30, 60, 90 and 120 minutes of administration, bloods were collected from venous plexus behind fossa orbitalis, the serums were separated, and the blood-sugar levels were separately detected by glucose oxidase method.
# [4] = system: mouse hyperglycemia induced by alloxan; experiment: Time-effect relation of Sequoyitol to mouse hyperglycemia induced by alloxan; type: in vivo, Kunming mice; conditions: for blood-sugar level decreased compared to the control group: Sequoyitol 50 mg/kg p.o. 7 days
# Protocol: 1. Experimental Methods^[1,2] • Alloxan was administrated to each of 30 mice by caudal vein injection with a dose of 65 mg/kg, and the mice were modeled according to the method of documents, divided into 3 groups according to blood-sugar values, […] according to […] of body weight, and the modeling group was administrated with the same volum of distilled water, separately. These administrations were conducted for continuous 7 days, and the mice were fasted for 2 hours before the last administration, and their blood-sugar levels were detected by glucose oxidase method at 1 2, 3 and 5 hours after the last administration.
compound,measurement,setting,value
"COC1C(O)C(O)C(O)C(O)C1O (stereo not drawn) [Sequoyitol, 5-O-methyl-myo-inositol]",alloxan-induced hyperglycemia compared to the control group,[1]; Sequoyitol 25 mg/kg p.o. 7 days,alleviated
same,blood-sugar level decreased compared to the control group,[1]; Sequoyitol 50 mg/kg p.o. 7 days,195.2 mg/dL
same,blood-sugar level decreased compared to the control group,[1]; Sequoyitol 100 mg/kg p.o. 7 days,306.8 mg/dL
same,number of pancreatic islands and number of islet cells (histopathologic examination) compared to the model group,"[1]; Sequoyitol groups (25, 50, 100 mg/kg p.o. 7 days)",increased significantly
same,main organs under macroscopic observation,[2]; executed after 14 days,free of abnormality
same,animals' responses after intravenous injection,[2]; observed 14 days,"better health status, gloss fur, bright eyes, and good rang of motion"
same,effect for alleviating hyperglycemia compared with phenformine,[3]; 100 mg/kg Sequoyitol vs 75 mg/kg phenformine,equivalent to that of 75 mg/kg phenformine
same,glucose-induced hyperglycemia compared to the control group,"[3]; 25 and 50 mg/kg Sequoyitol groups, oral 7 days, 30, 60, 90 minutes after i.p. glucose",significantly alleviated
same,glucose-induced hyperglycemia compared to the control group,"[3]; Sequoyitol 100 mg/kg oral 7 days, 30, 60, 90, 120 minutes after i.p. glucose",highly significantly alleviated
same,blood-sugar level decreased compared to the control group,"[3]; Sequoyitol 100 mg/kg oral 7 days, 90 minutes after i.p. glucose",24.5 mg/dL
same,effect of alleviating hyperglycemia compared with phenformine,[4]; 60 mg/kg Sequoyitol vs 75 mg/kg phenformine,higher than that of 75 mg/kg phenformine
same,blood-sugar level decreased compared to the control group,[4]; 1 hour after last administration,100.0 mg/dL
same,blood-sugar level decreased compared to the control group,[4]; 2 hours after last administration,140.7 mg/dL
same,blood-sugar level decreased compared to the control group,[4]; 3 hours after last administration,193.9 mg/dL
same,blood-sugar level decreased compared to the control group,[4]; 5 hours after last administration,174.6 mg/dL
